Patent publication US8536193B2, “Inhibitors of AKT activity” (Merck Sharp & Dohme Corp., priority 2008, dated 2013)

Tests used:
Akt2 kinase = Akt2 kinase (Homo sapiens (Human), UniProt P31751); assay: Akt kinase assay (HTRF, GSK-derived biotinylated peptide substrate); format: biochemical
Procedure: (§1) Activated Akt isoforms and pleckstrin homology domain deletion constructs were assayed utilizing a GSK-derived biotinylated peptide substrate. The extent of peptide phosphorylation was determined by Homogeneous Time Resolved Fluorescence (HTRF) using a lanthanide chelate (Lance)-coupled monoclonal antibody specific for the phosphopeptide in combination with a streptavidin-linked allophycocyanin (SA-APC) fluorophore which will bind to the biotin moiety on the peptide. When the Lance and APC are in proximity (i.e. bound to the same phosphopeptide molecule), a non-radiative energy transfer takes place from the Lance to the APC, followed by emission of light from APC at 665 nm.
(§2) Materials Required for the Assay:
(§3) A. Activated Akt isozyme or pleckstrin homology domain deleted construct
(§4) B. Akt peptide substrate: GSK3α (S21) Peptide #3928 biotin-[…] (SEQ.ID.NO.:15), Macromolecular Resources.
(§5) C. Lance labeled anti-phospho GSK3α monoclonal antibody (Cell Signaling Technology, clone #27).
(§6) D. SA-APC (Prozyme catalog no. PJ25S lot #896067).
(§7) E. Microfluor®B U Bottom Microtiter Plates (Dynex Technologies, Catalog no. 7205).
(§8) F. Discovery® HTRF Microplate Analyzer, Packard Instrument Company.
(§9) G. 100× Protease Inhibitor Cocktail (PIC): 1 mg/mL benzamidine, 0.5 mg/mL pepstatin, 0.5 mg/mL leupeptin, 0.5 mg/mL aprotinin.
(§10) H. 10× Assay Buffer: 500 mM HEPES, pH 7.5, 1% PEG, […], 1 mM EGTA, 1% BSA, 20 mM θ-Glycerol phosphate.
(§11) I. Quench Buffer: 50 mM HEPES pH 7.3, 16.6 mM EDTA, 0.1% BSA, 0.1% Triton X-100, 0.17 nM Lance labeled monoclonal antibody clone #27, 0.0067 mg/mL SA-APC
(§12) J. ATP/MgCl2 working solution: 1× Assay buffer, 1 mM DTT, 1×PIC, 125 mM KCl, 5% Glycerol, 25 mM MgCl2, 375 μM ATP
(§13) K. Enzyme working solution: 1× Assay buffer, 1 mM DTT, 1× PIC, 5% Glycerol, active Akt. The final enzyme concentrations were selected so that the assay was in a linear response range.
(§14) L. Peptide working solution: 1× Assay buffer, 1 mM DTT, 1× PIC, 5% Glycerol, 2 μM GSK3 biotinylated peptide #3928
(§15) The reaction is assembled by adding 16 μl, of the ATP/MgCl2 working solution to the appropriate wells of a 96-well microtiter plate. Inhibitor or vehicle (1.0 μL) is added followed by 10 μL of peptide working solution. The reaction is started by adding 13 μL of the enzyme working solution and mixing. The reaction is allowed to proceed for 50 min and then stopped by the addition of 60 μl, HTRF quench buffer. The stopped reactions were incubated at room temperature for at least 30 min and then read on the Discovery instrument.

Akt1 kinase = Akt1 kinase (Homo sapiens (Human), UniProt P31749); assay: as above; format: biochemical
Procedure: as §1, §2, §3, §4, §5, §6, §7, §8, §9, §10, §11, §12, §13, §14, §15

Chain of Akt1 kinase (P31749 whole entry): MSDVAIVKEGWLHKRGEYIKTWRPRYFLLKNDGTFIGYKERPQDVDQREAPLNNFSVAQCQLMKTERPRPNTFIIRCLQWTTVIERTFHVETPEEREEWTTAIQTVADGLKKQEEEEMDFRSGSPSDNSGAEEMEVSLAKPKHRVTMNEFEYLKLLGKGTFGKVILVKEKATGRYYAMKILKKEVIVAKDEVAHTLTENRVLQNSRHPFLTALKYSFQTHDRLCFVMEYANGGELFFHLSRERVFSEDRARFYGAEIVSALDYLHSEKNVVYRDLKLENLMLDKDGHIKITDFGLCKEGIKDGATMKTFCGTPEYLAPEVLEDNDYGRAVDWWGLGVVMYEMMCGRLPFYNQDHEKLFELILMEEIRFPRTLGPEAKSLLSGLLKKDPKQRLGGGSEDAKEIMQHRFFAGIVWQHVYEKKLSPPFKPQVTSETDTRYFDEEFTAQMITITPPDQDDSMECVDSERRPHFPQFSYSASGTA
Chain of Akt2 kinase (P31751 whole entry, the tested form may be a part, canonical isoform): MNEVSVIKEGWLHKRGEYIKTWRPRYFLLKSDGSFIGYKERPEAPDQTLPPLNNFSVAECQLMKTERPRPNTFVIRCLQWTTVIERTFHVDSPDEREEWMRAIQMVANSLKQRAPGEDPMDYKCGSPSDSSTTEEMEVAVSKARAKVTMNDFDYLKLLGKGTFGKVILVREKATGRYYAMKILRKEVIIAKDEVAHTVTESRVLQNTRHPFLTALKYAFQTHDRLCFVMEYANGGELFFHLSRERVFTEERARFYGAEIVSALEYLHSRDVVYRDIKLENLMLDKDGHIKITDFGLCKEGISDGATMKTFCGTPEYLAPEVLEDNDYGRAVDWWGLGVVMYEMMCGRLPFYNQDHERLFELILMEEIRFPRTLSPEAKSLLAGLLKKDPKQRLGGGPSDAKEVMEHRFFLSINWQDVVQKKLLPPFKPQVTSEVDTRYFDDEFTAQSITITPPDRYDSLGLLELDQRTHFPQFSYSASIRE

IC50 (Akt2 kinase)	IC50 (Akt1 kinase)	SMILES
24 nM	6.1 nM	Nc1nnc2ccc3nc(-c4ccc(C5(N)CCC5)cc4)c(-c4ccccc4)cc3n12 [EXAMPLE 3-1, 7-[4-(1-aminocyclobutyl)phenyl]-8-phenyl[1,2,4]triazolo[4,3-a]-1,5-naphthylidin-1-amine]
50 nM	8.2 nM	Cc1nnc2ccc3nc(-c4ccc(C5(N)CCC5)cc4)c(-c4ccccc4)cc3n12 [EXAMPLE 4-1, 1-[4-(1-methyl-8-phenyl[1,2,4]triazolo[4,3-a]-1,5-naphthylidin-7-yl)phenyl]cyclobutanamine]
12.6 nM	0.7 nM	CC1(O)CC(N)(c2ccc(-c3nc4ccc5nnc(-c6nnc[nH]6)n5c4cc3-c3ccccc3)cc2)C1 (stereo not drawn) [EXAMPLE 7-26, cis-3-amino-1-methyl-3-{4-[8-phenyl-1-(4H-1,2,4-triazol-3-yl)[1,2,4]triazolo[4,3-a][1,5]naphthyridin-7-yl]phenyl}cyclobutanol]
1.7 nM	0.38 nM	C[C@]1(O)C[C@@](N)(c2ccc(-c3nc4ccc5nnc(C(F)F)n5c4cc3-c3ccccc3)cc2)C1 [EXAMPLE 10-4, trans-3-amino-3-{4-[1-(difluoromethyl)-8-phenyl[1,2,4]triazolo[4,3-a]-1,5-naphthyridin-7-yl]phenyl}-1-methylcyclobutanol]
2.2 nM	0.34 nM	NC1(c2ccc(-c3nc4ccc5nnc(C(F)F)n5c4cc3-c3ccccc3)cc2)CC(O)(C2CC2)C1 (stereo not drawn) [EXAMPLE 10-5, trans-3-amino-1-cyclopropyl-3-{4-[1-(difluoromethyl)-8-phenyl-[1,2,4]triazolo[4,3-a]-1,5-naphthyridin-7-yl]phenyl}cyclobutanol]

Continued, molecule first:

SMILES	IC50 (Akt2 kinase)	IC50 (Akt1 kinase)
O=C(Cc1cccnc1)NC1(c2ccc(-c3nc4ccc5nnc(O)n5c4cc3-c3ccccc3)cc2)CCC1 [EXAMPLE 1-9, N-{1-[4-(1-hydroxy-8-phenyl[1,2,4]triazolo[4,3-a]-1,5-naphthylidin-7-yl)phenyl]cyclobutyl}-2-(3-pyridinyl)acetamide]	200 nM	39 nM
NC1(c2ccc(-c3nc4ccc5nnc(-c6ccccc6)n5c4cc3-c3ccccc3)cc2)CCC1 [EXAMPLE 2-1, 1-[4-(1,8-diphenyl[1,2,4]triazolo[4,3-a]-1,5-naphthylidin-7-yl)phenyl]cyclobutanamine]	32 nM	2.3 nM
NC1(c2ccc(-c3nc4ccc5nnc(-c6ccccc6)n5c4cc3-c3ccccc3)cc2)CC(F)(F)C1 [EXAMPLE 5-12, 1-[4-(1,8-diphenyl[1,2,4]triazolo[4,3-a]-1,5-naphthyridin-7-yl)phenyl]-3,3-difluorocyclobutanamine]	140 nM	10 nM
